Values quoted from earlier work as cited in PubChem BioAssay AID1259409 (Chemical Carcinogenesis Research Information System (CCRIS), 2018).

Tested on: rodent chemically induced tumor inhibition, incidence and multiplicity
Experiment: CCRIS tumor inhibitor studies
Conditions: Dose [Inhibitor]: 0, Route [Inhibitor]: ORAL, Species: RAT, Promoter: NONE USED

N#C[Se]Cc1ccc(C[Se]C#N)cc1
tumour outcome (control, treated, inhibition, significance) (Carcinogen: 7,12-DIMETHYLBENZ[A]ANTHRACENE, 57-97-6, 5 PPM (AS SELENIUM) IN DIET BEGINNING 2 WK PRIOR TO CARCINOGEN DOSE AND CONTINUING FOR 1 WK POST CARCINOGEN DOSE (STU, Strain/Sex: SPRAGUE-DAWLEY/FEMALE, Target Tissue: Type of Lesion: MAMMARY GLAND: ADENOCARCINOMA, Dose [Carcinogen]: 10 MG ONCE AT 55 D OF AGE): 22/25 (88%), 15/25 (60%), 32%, p<0.05 | tumour outcome (control, treated, inhibition, significance) (Carcinogen: 7,12-DIMETHYLBENZ[A]ANTHRACENE, 57-97-6, 5 PPM (AS SELENIUM) IN DIET BEGINNING 2 WK PRIOR TO CARCINOGEN DOSE AND CONTINUING FOR DURATION OF STUDY (STUDY DURAT, Strain/Sex: SPRAGUE-DAWLEY/FEMALE, Target Tissue: Type of Lesion: MAMMARY GLAND: ADENOCARCINOMA, Dose [Carcinogen]: 10 MG ONCE AT 55 D OF AGE): 88%, 52%, 41%, p<0.05 | tumour outcome (control, treated, inhibition, significance) (Carcinogen: 7,12-DIMETHYLBENZ[A]ANTHRACENE, 57-97-6, 10 PPM (AS SELENIUM) IN DIET BEGINNING 1 WK POST CARCINOGEN DOSE AND CONTINUING FOR 25 WK (STUDY DURATION: 25 WK), Strain/Sex: SPRAGUE-DAWLEY/FEMALE, Target Tissue: Type of Lesion: MAMMARY GLAND: ADENOCARCINOMA, Dose [Carcinogen]: 10 MG ONCE AT 55 D OF AGE): 22/25 (88%), 14/25 (56%), 36%, p<0.05 | tumour outcome (control, treated, inhibition, significance) (Carcinogen: 7,12-DIMETHYLBENZ[A]ANTHRACENE, 57-97-6, 10 PPM (AS SELENIUM) IN DIET BEGINNING 2 WK PRIOR TO CARCINOGEN DOSE AND CONTINUING FOR 1 WK POST CARCINOGEN DOSE (ST, Strain/Sex: SPRAGUE-DAWLEY/FEMALE, Target Tissue: Type of Lesion: MAMMARY GLAND: ADENOCARCINOMA, Dose [Carcinogen]: 10 MG ONCE AT 55 D OF AGE): 22/25 (88%), 12/25 (48%), 45%, p<0.05 | tumour outcome (control, treated, inhibition, significance) (Carcinogen: 7,12-DIMETHYLBENZ[A]ANTHRACENE, 57-97-6, 10 PPM (AS SELENIUM) IN DIET BEGINNING 2 WK PRIOR TO CARCINOGEN DOSE AND CONTINUING FOR DURATION OF STUDY (STUDY DURA, Strain/Sex: SPRAGUE-DAWLEY/FEMALE, Target Tissue: Type of Lesion: MAMMARY GLAND: ADENOCARCINOMA, Dose [Carcinogen]: 10 MG ONCE AT 55 D OF AGE): 88%, 40%, 55%, p<0.05 | tumour outcome (control, treated, inhibition, significance) (Carcinogen: 7,12-DIMETHYLBENZ[A]ANTHRACENE, 57-97-6, 15 PPM (AS SELENIUM) IN DIET BEGINNING 1 WK POST CARCINOGEN DOSE AND CONTINUING FOR 25 WK (STUDY DURATION: 25 WK), Strain/Sex: SPRAGUE-DAWLEY/FEMALE, Target Tissue: Type of Lesion: MAMMARY GLAND: ADENOCARCINOMA, Dose [Carcinogen]: 10 MG ONCE AT 55 D OF AGE): 22/25 (88%), 12/25 (48%), 45%, p<0.05 | tumour outcome (control, treated, inhibition, significance) (Carcinogen: 7,12-DIMETHYLBENZ[A]ANTHRACENE, 57-97-6, 15 PPM (AS SELENIUM) IN DIET BEGINNING 2 WK PRIOR TO CARCINOGEN DOSE AND CONTINUING FOR 1 WK POST CARCINOGEN DOSE (ST, Strain/Sex: SPRAGUE-DAWLEY/FEMALE, Target Tissue: Type of Lesion: MAMMARY GLAND: ADENOCARCINOMA, Dose [Carcinogen]: 10 MG ONCE AT 55 D OF AGE): 22/25 (88%), 6/25 (24%), 73%, p<0.05 | tumour outcome (control, treated, inhibition, significance) (Carcinogen: 7,12-DIMETHYLBENZ[A]ANTHRACENE, 57-97-6, 80 PPM IN HIGH FAT DIET FOR 2 WK BEGINNING 1 WK PRIOR TO CARCINOGEN DOSE (STUDY DURATION: 17 WK), Strain/Sex: SPRAGUE-DAWLEY/FEMALE, Target Tissue: Type of Lesion: MAMMARY GLAND: TUMOR, Dose [Carcinogen]: 5 MG IN 0.2 ML OLIVE OIL ONCE): 22/25 (88%), 5/25 (20%), 77%, p<0.01 | tumour outcome (control, treated, inhibition, significance) (Carcinogen: AZOXYMETHANE, 25843-45-2, 20 PPM IN HIGH-FAT DIET BEGINNING 2 WK PRIOR TO CARCINOGEN TREATMENT AND CONTINUING FOR 3 D POST CARCINOGEN TREATMENT, Strain/Sex: F344/MALE, Target Tissue: Type of Lesion: COLON: ADENOCARCINOMA, Dose [Carcinogen]: 15 MG/KG BW/WK FOR 2 WK): 80%, 63%, 21%, not significant | tumour outcome (control, treated, inhibition, significance) (Carcinogen: AZOXYMETHANE, 25843-45-2, 40 PPM IN HIGH-FAT DIET BEGINNING 2 WK PRIOR TO CARCINOGEN TREATMENT AND CONTINUING FOR 3 D POST CARCINOGEN TREATMENT, Strain/Sex: F344/MALE, Target Tissue: Type of Lesion: COLON: ADENOCARCINOMA, Dose [Carcinogen]: 15 MG/KG BW/WK FOR 2 WK): 80%, 50%, 38%, p<0.05 | tumour outcome (control, treated, inhibition, significance) (Carcinogen: AZOXYMETHANE, 25843-45-2, 40 PPM IN HIGH-FAT DIET FOR DURATION OF STUDY BEGINNING 3 D POST CARCINOGEN TREATMENT (STUDY DURATION: 36 WK), Strain/Sex: F344/MALE, Target Tissue: Type of Lesion: COLON: ADENOCARCINOMA, Dose [Carcinogen]: 15 MG/KG BW/WK FOR 2 WK): 80%, 37%, 54%, p<0.05
